From patent US6693123B2 (University of Pittsburgh, priority 1995, dated 2004)
Where a name gives a salt, the structure may show the parent alone. Read-outs that look alike come from different tables or passages of the source. Values belong to the compound of their own block, whether it stands above or below them.

Target: T1, Rat brain protein farnesyltransferase (Rattus norvegicus, UniProt Q02293+Q04631)
T1 construct: The enzyme is purified according to Reiss, Y., et al., Cell, 62: 81-88 (1990), utilizing steps one through three; from tissue; host or cells: rat brain
Test: In vitro inhibition of protein farnesyltransferase, Amersham scintillation proximity assay with biotin-K Ras B fragment
Format: biochemical
Conditions: for inhibition at 1 µM: read-out: % inhibition at 1 × 10^−6 M; for inhibition at 0.1 µM: read-out: % inhibition at 1 × 10^−7 M
From the text: The ability of the compounds of the invention to inhibit protein farnesyltransferase or protein geranylgeranyltransferase can be measured according to the method of Moores, et al., J. Biol. Chem. 266: 14603 (1991) or the method of Vogt, et al., J. Biol. Chem. 270:660-664 (1995). In addition, procedures for determination of the inhibition of farnesylation of the oncogene protein Ras are described by Goldstein, et al., J. Biol. Chem., 266:15575-15578 (1991) and by Singh in U.S. Pat. No. 5,245,061.
In addition, in vitro inhibition of protein farnesyltransferase may be measured by the following procedure. Rat brain protein farnesyltransferase activity is measured using an Amersham Life Science commercial scintillation proximity assay kit and substituting a biotin-K Ras B fragment (biotin-[…]Ue-Met-CO2H), 0.1 mM final concentration, for the biotin-lamin substrate provided by Amersham. The enzyme is purified according to Reiss, Y., et al., Cell, 62: 81-88 (1990), utilizing steps one through three. […]
The % inhibition of protein farnesyltransferase was determined for representative compounds of the invention.

[1] = Inhibition of farnesyltransferase, compound at 1 × 10^−6 M (Table 2)
[2] = Inhibition of farnesyltransferase, compound at 1 × 10^−8 M (Table 4), read-out: % inhibition at 1 × 10^−8 M
[3] = Inhibition of farnesyltransferase, compound at 1 × 10^−7 M (Table 3)

inhibition at 1 µM [1]: 41%
Compound: CC1(C)O[C@H](c2cccnc2)[C@@H](c2ccc(C(=O)N[C@@H](CCS(C)(=O)=O)C(=O)O)c(-c3ccccc3)c2)O1 [Example 222, N-{4-[2,2-Dimethyl-4-(3-pyridyl)-1,3-dioxolan-5-yl-]-2-phenylbenzoyl}-2-amino-4-methanesulfonylbutanoic Acid]

inhibition at 0.01 µM [2]: 91%
Compound: CSCC[C@H](NC(=O)c1ccc(NCc2c[nH]cn2)cc1-c1ccccc1C)C(=O)O [Example 384, 4-[N-(1-H-Imidazole-4-yl)methylamino-2-(2-methylphenylbenzoyl)]methionine]

inhibition at 0.1 µM [3]: 95%
Compound: CSCC[C@H](NC(=O)c1ccc(C#Cc2cccnc2)cc1-c1ccccc1C)C(=O)O [Example 865, N-[4-(2-Pyrid-3-ylethyn-1-yl)-2-(2-methylphenyl)benzoyl]methionine]

Compound: CSCC[C@H](NC(=O)c1ccc(CNc2cnccc2C)cc1-c1ccccc1)C(=O)O [Example 280]
inhibition at 1 µM: 98%

Compound: CSCC[C@H](NC(=O)c1ccc(COc2cccnc2)cc1-c1ccccc1C(F)(F)F)C(=O)O [Example 304, [4-(3-Pyridyloxymethyl)-2-(2-trifluoromethylphenyl)benzoyl]methionine]
inhibition at 1 µM: 99%

Compound: CSCC[C@H](NC(=O)c1ccc(CCc2cncc(Cc3ccccc3)c2)cc1-c1ccccc1C)C(=O)O [Example 799, Lithium Salt]
inhibition at 0.1 µM: 96%

% inhibition at 1 × 10^−6 M [1]: 97%
Compound: CNC(=O)CC[C@H](NC(=O)c1ccc(COc2cccnc2)cc1-c1ccccc1C)C(=O)O [Example 314, (S)-2-N-[4-(3-Pyridyloxymethyl)-2-(2-methylphenyl)benzoyl]amino-4-(N-methylaminocarbonyl)butanoic Acid]

inhibition at 0.01 µM [2]: > 50%
Compound: CSCC[C@H](NC(=O)c1ccc(OCCn2ccnc2)cc1-c1ccccc1)C(=O)O [Example 958, N-[4-(2-Imidazol-1-ylethoxy)-2-phenylbenzoyl]methionine]

inhibition at 1 µM [1]: 98%
Compound: CCCCc1cc(C(=O)N[C@@H](CCSC)C(=O)O)c(-c2ccccc2C)cc1COc1cccnc1 [Example 319, [4-(3-Pyridyloxymethyl)-2-(2-methylphenyl)-5-butylbenzoyl]methionine]

inhibition at 1 µM [1]: 35%
Compound: CSCC[C@H](NC(=O)c1ccc(/C=C/c2cccnc2)cc1-c1ccccc1C)C(=O)NC(=O)c1ccccc1 [Example 797, Benzoyl N-[4-(2-Pyrid-3-ylethen-1-yl)-2-(2-methylphenyl)benzoyl]methioninamide]

inhibition at 1 µM [1]: 93%
Compound: CSCC[C@H](NC(=O)c1cc(CC(C)C)c(COc2cccnc2)cc1-c1ccccc1C)C(=O)O [Example 320, [4-(3-Pyridyloxymethyl)-2-(2-methylphenyl)-5-isobutylbenzoyl]methionine]

inhibition at 1 µM [1]: 43%
Compound: CSCC[C@H](NC(=O)c1ccc(NCc2cccnc2)cc1-c1ccccc1)C(N)=O [Example 196, [4-(3-Pyridylmethylamino)-2-phenylbenzoyl]methionineamide]

inhibition at 1 µM [1]: 98%
Compound: CSCC[C@H](NC(=O)c1ccc(CCc2c[nH]cn2)cc1-c1ccccc1)C(=O)O [Example 329, {4-[2-(1H-Imidazol-4-yl)ethyl]-2-phenylbenzoyl}methionine]

Compound: CSCC[C@H](NC(=O)c1ccc(COc2cccnc2)cc1-c1ccccc1)c1nnc(C(F)(F)F)[nH]1 [Example 272, N-[3-(Methylthio)-1-(2-trifluoromethyl-1H-1,3,4-triazol-5-yl)propyl]-4-(3-pyridyloxymethyl)-2-phenylbenzamide]
inhibition at 1 µM: 96%

inhibition at 0.1 µM [3]: 95%
Compound: CSCC[C@H](NC(=O)c1ccc(/C=C/c2cnccc2C(=O)c2ccccc2)cc1-c1ccccc1C)C(=O)O [Example 483, N-[4-(2-(4-Benzoyl)pyrid-3-ylethen-1-yl)-2-(2-methylphenyl)benzoyl]methionine Lithium Salt]

inhibition at 0.1 µM [3]: 91%
Compound: CCCCCc1cc(C(=O)N[C@@H](CCSC)C(=O)O)c(-c2ccccc2C)cc1COc1cccnc1 [Example 919, N-[5-Pentyl-4-(pyrid-3-yloxymethyl)-2-(2-methylphenyl)benzoyl]methionine]

inhibition at 0.1 µM [3]: 97%
Compound: CSCC[C@@H](C(=O)O)N(C)C(=O)c1ccc(CN(Cc2ccccc2)c2cccnc2)cc1-c1ccccc1C [Example 602, N-[4-(N-Benzyl-N-pyrid-3-ylaminomethyl)-2-(2-methylphenyl)benzoyl]-N-methylmethionine]

inhibition at 1 µM [1]: 98%
Compound: CSCC[C@H](NC(=O)c1ccc(COc2cccnc2)cc1-c1ccccc1C)C(=O)O [Example 204, [4-(3-Pyridyloxymethyl)-2-(2-methylphenyl)benzoyl]methionine]

Compound: Cc1ccccc1-c1cc(CCc2cnc3ccccc3c2)ccc1C(=O)N[C@@H](CC[S+](C)[O-])C(=O)O (stereo in doubt) [Example 490, N-[4-(2-Quinolin-3-ylethyl)-2-(2-methylphenyl)benzoyl]-2-amino-4-methylsulfinylbutanoic Acid Lithium Salt]
inhibition at 0.1 µM: 70%

Compound: [4-(3-Pyridyloxymethyl)-2-(2-chlorophenyl)benzoyl]methionine Methyl Ester [Example 305]
% inhibition at 1 × 10^−6 M [1]: 99%

Compound: CSCC[C@H](NC(=O)c1ccc(C=Cc2cccnc2)cc1-c1ccccc1C)C(=O)OCCN(C)C [Example 294, {4-[2-(Pyrid-3-yl)ethenyl]-2-(2-methylphenyl)benzoyl}methionine Dimethylaminoethyl Ester]
inhibition at 1 µM: 98%

inhibition at 1 µM [1]: 98%
Compound: CSCC[C@H](NC(=O)c1ccc(CCc2cccnc2)cc1-c1ccccc1)C(=O)O [Example 213, {4-[2-(Pyrid-3-yl)ethyl]-2-phenylbenzoyl}methionine Sodium Salt]

inhibition at 1 µM [1]: 98%
Compound: CSCC[C@H](NC(=O)c1ccc(C=Cc2cccnc2)cc1-c1ccccc1)C(=O)O [Example 211, {4-[2-(Pyrid-3-yl)ethenyl]-2-phenylbenzoyl}methionine Sodium Salt]

inhibition at 1 µM [1]: 98%
Compound: CSCC[C@H](NC(=O)c1ccc(C=Cc2cccnc2)cc1-c1ccccc1C)C(=O)O [Example 276, {4-[2-(Pyrid-3-yl)ethenyl]-2-(2-methylphenyl)benzoyl}methionine Sodium Salt]

inhibition at 1 µM [1]: 84%
Compound: CCN(CC)C(=O)COC(=O)[C@H](CCSC)NC(=O)c1ccc(CN(Cc2ccccc2)c2cccnc2)cc1-c1ccccc1C [Example 501, N,N-Diethylaminocarbonylmethyl N-[4-N-benzyl-N-pyridin-3-ylaminomethyl-2-(2-methylphenyl)benzoyl]methionine]

Compound: CSCC[C@H](NC(=O)c1ccc(CN(Cc2cccnc2)Cc2cc(F)cc(F)c2)cc1-c1ccccc1C)C(=O)O [Example 1286, N-[4-N-(N-(3-Pyridylmethyl)-N-(3,5-difluorobenzyl)aminomethyl)-2-(2-methylphenyl)benzoyl]methionine Lithium Salt]
inhibition at 0.01 µM (read-out: % inhibition at 0.01 μM): 85%

inhibition at 1 µM [1]: 63%
Compound: NC(=O)CC[C@H](NC(=O)c1ccc(COc2cccnc2)cc1-c1ccccc1)C(=O)O [Example 316, (S)-2-N-[4-(3-Pyridyloxymethyl)-2-phenylbenzoyl]amino-4-(aminocarbonyl)butanoic Acid]

inhibition at 1 µM [1]: 98%
Compound: CSCC[C@H](NC(=O)c1ccc(CSc2cccnc2)cc1-c1ccccc1)C(=O)O [Example 237, [4-(3-Pyridylthiomethyl)-2-phenylbenzoyl]methionine]

inhibition at 1 µM [1]: 98%
Compound: CSCC[C@H](NC(=O)c1ccc(NCc2cccnc2)cc1-c1ccccc1C)C(=O)O [Example 309, [4-(3-Pyridylmethylamino)-2-(2-methylphenyl)benzoyl]methionine]

inhibition at 10 µM (Inhibition of farnesyltransferase, compound at 1 × 10^−5 M (Table 1)): > 50%
Compound: CSCC[C@H](NC(=O)c1ccc(NCc2cnc(-c3ccccc3)[nH]2)cc1-c1ccccc1)C(=O)O [Example 382, 4-[N-(1-H-2-Phenylimidazole-4-yl)methylamino-2-phenylbenzoyl]-methionine]

inhibition at 0.01 µM [2]: 97%
Compound: CSCC[C@H](NC(=O)c1ccc(CN(Cc2ccccc2)c2cccnc2)cc1-c1ccc(F)cc1Cl)C(=O)O [Example 873, N-(4-(N-Benzyl-N-pyrid-3-ylaminomethyl)-2-(2-chloro-4-fluorophynel)beonzoyl)methionine]

Compound: CSCC[C@H](NC(=O)c1ccc(C=Cc2cccnc2)cc1-c1ccccc1C)C(=O)OCOC(=O)C(C)(C)C [Example 296]
% inhibition at 1 × 10^−6 M [1]: 89%

Compound: CSCC[C@H](NC(=O)c1ccc(/C=C/c2ccc(Oc3ccccc3Cl)nc2)cc1-c1ccccc1C)C(=O)O [Example 802, Lithium Salt]
inhibition at 0.1 µM: 88%

inhibition at 1 µM [1]: 26%
Compound: CSCC[C@H](NC(=O)c1ccc(CNC(=O)c2cn(C)cn2)cc1-c1ccccc1)C(=O)O [Example 332, [4-(1H-1-Methylimidazol-4-ylcarbonylaminomethyl)-2-phenylbenzoyl]methionine]

inhibition at 1 µM [1]: 72%
Compound: CSCC[C@H](NC(=O)c1cc(-c2ccc(C)cc2)c(COc2cccnc2)cc1-c1ccccc1C)C(=O)O [Example 343]

Compound: CSCC[C@H](NC(=O)c1ccc(COc2cccnc2)cc1-c1c(C)noc1C)C(=O)O [Example 823]
inhibition at 0.1 µM: 75%
